Our source for the Emax and Ki values is patent US6465482B2, “Arylpiperazinyl-cyclohexyl indole derivatives for the treatment of depression” (Wyeth, priority 1999, dated 2002).

Experiment [1] addresses T1, human 5-HT1A receptor subtype (5-HT1A CHO cells) (Homo sapiens, UniProt P08908).
T1 construct: expressed in transfected cells
T1 sequence (P08908 1-422): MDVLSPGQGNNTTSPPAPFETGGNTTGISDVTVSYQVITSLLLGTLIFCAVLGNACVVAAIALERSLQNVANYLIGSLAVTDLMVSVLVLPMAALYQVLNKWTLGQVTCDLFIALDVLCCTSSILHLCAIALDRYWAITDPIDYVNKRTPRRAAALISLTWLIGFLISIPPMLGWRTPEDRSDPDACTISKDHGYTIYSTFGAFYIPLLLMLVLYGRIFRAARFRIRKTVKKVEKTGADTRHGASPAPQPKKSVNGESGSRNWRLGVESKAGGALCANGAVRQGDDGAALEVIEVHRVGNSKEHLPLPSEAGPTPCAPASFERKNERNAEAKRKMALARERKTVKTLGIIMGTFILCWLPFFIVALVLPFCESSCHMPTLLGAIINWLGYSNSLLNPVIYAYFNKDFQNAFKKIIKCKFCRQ
Kind of experiment: forskolin-stimulated cAMP formation (cAMP SPA assay). It is filed as cell-based. The note with it: forskolin 1 uM. How it is done: (§1) The PCR cloning of the human 5-HT1A receptor subtype from a human genomic library has been described previously Chanda et al., Mol. Pharmacol., 43:516 (1993). A stable Chinese hamster ovary cell line expressing the human 5-HT1A receptor subtype (5-HT1A.CH2O cells) was employed throughout this study. Cells were maintained in DMEM supplemented with 10% fetal calf serum, non-essential amino acids and penicillin/streptomycin.
The following assays were performed by incubating the cells with DMEM containing 25 mM HEPES, 5 mM theophylline and 10 μM pargyline for a period of 20 minutes at 37° C. Functional activity was assessed by treating the cells with forskolin (1 uM final concentration) followed immediately by test compound (6 concentrations) for an additional 10 minutes at 37° C. In separate experiments, 6 concentrations of antagonist were preincubated for 20 minutes prior to the addition of 10 nM 8-OH-DPAT and forskolin. The reaction was terminated by removal of the media and addition of 0.5 ml ice cold assay buffer. Plates were stored at −20° C. prior to assessment of cAMP formation by a cAMP SPA assay (Amersham).
A general note: Changes in cAMP serve as a functional read-out for many G protein-coupled receptors.

Experiment [2] concerns the target T2, human 5-HT1A receptor subtype (Homo sapiens, UniProt P08908).
T2 construct: expressed in transfected cells
T2 sequence (P08908 1-422): T1 sequence (P08908 1-422)
Kind of experiment: 5-HT1A receptor binding, [3H]8-OH-DPAT, CHO cell membranes. The note with it: [3H]8-OH-DPAT 1.5 nM. How it is done: as §1
Cells were grown to 95-100% confluency as a monolayer before membranes were harvested for binding studies. Cells were gently scraped from the culture plates, transferred to centrifuge tubes, and washed twice by centrifugation (2000 rpm for 10 min., 4° C.) in buffer (50 mM Tris; pH 7.5). The resulting pellets were aliquoted and placed at −80° C. On the day of assay, the cells were thawed on ice, and resuspended in buffer. Studies were conducted using [^3H]8-OH-DPAT as the radioligand. The binding assay was performed in 96 well microtiter plates in a final total volume of 250 μL of buffer. Competition experiments were performed by using 7 concentrations of unlabelled drug and a final ligand concentration of 1.5 nM. Non-specific binding was determined in the presence of 10 μM 5HT. Saturation analysis was conducted by using [^3H]8-OH-DPAT at concentaritions ranging from 0.3-30 nm Following a 30 minute incubation at room temperature, the reaction was terminated by the addition of ice cold buffer and rapid filtration using a M-96 Brandel Cell Harvester (Gaithersburg, Md.) through a GF/B filter presoaked for 30 minutes in 0.5% polyethylenenimine.

In experiment [3] the target is T3, 5-HT1A cloned receptor membrane fragments (Homo sapiens, UniProt P08908).
T3 construct: expressed in transfected cells
T3 sequence (P08908 1-422): T1 sequence (P08908 1-422)
As to the kind of experiment: [35S]-GTPγS binding assay. It is filed as biochemical. The settings on record: relative to excess 8-OH-DPAT maximum agonist response. How it is done: The [^35S]-GTPγS biding assay was similar to that used by Lazarenno and Birdsall, Br. J. Pharmacol. 109:1120 (1993). Briefly, 5-HT1A cloned receptor membrane fragments (as used for 5-HT1A receptor binding assays were stored at −70° C. unit needed. When needed, membranes were rapidly thawed, centrifuged at […] for 10 minutes and resuspended at 4° C. for 10 minutes in assay buffer (25 mM HEPES, 3 mM MgCl2, 100 mM NaCl, 1 mM EDTA, 10 uM GDP, […], pH 8.0). These membranes were then incubated for 30 minutes at 30+ C. with [^35S]GTPgS (1 nM) in the presence of vehicle, test compound (one to eight concentrations), or excess 8-OH-DPAT to define maximum agonist response. All reactions are terminated by the addition of ice cold Tris buffer followed by rapid filtration using a Tom Tech® filtration device to separate bound from free [^35S]GTPgS. Agonists produce an increase in the amount of [^35S]GTPgS bound whereas antagonists produce no increase in binding. Bound radioactivity was counted and analyzed as above.
(GTPγS is a poorly hydrolysed GTP analogue; its binding reports G protein activation.)

A further experiment deals with T4, serotonin transporter (Rattus norvegicus, UniProt P31652).
T4 construct: frontal cortical membranes prepared from male Sprague-Dawley rats; from tissue; host or cells: rat frontal cortex membranes
T4 sequence (P31652 whole entry): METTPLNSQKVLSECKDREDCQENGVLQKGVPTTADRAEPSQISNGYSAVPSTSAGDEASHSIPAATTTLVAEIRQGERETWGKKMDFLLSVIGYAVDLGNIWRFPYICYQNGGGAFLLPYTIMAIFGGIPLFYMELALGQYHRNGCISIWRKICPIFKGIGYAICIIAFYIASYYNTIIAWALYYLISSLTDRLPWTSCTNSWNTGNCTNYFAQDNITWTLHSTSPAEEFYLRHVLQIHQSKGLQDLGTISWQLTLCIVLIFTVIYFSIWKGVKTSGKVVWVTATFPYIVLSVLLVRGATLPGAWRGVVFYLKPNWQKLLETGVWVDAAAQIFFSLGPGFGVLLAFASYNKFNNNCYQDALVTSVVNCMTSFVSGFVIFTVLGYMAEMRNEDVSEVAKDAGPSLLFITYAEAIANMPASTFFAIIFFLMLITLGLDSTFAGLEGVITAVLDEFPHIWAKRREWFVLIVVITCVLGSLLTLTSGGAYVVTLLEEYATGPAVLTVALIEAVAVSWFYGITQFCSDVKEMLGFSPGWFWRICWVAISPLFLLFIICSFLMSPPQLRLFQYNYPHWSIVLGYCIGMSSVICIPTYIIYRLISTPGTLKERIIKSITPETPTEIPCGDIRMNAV
As to the kind of experiment: serotonin transporter affinity, 3H-paroxetine binding, frontal cortical membranes. The note with it: 3H-paroxetine 0.1 nM; read-out: ST (Ki, nM,). How it is done:
A protocol similar to that used by Cheetham et al., Neuropharmacol. […] Briefly, frontal cortical membranes prepared from male Sprague-Dawley rats were incubated with ^3H-paroxetine (0.1 nM) for 60 minutes at 25° C. […] All reactions are terminated by the addition of ice cold Tris buffer followed by rapid filtration using a Tom Tech filtration device to separate bound from free ^3H-paroxetine.

As usually defined, the Emax is the maximal effect, on the per cent scale that the assay sets. As usually defined, the Ki is a measure of affinity in units of concentration, obtained from inhibition or displacement. On to `Fc1ccc2[nH]cc([C@H]3CC[C@@H](N4CCN(c5cccc6[nH]ccc56)CC4)CC3)c2c1` [Example 3a, 5-Fluoro-3-[cis-4-[4-(1H-indol-4-yl)-1-piperazinyl]cyclohexyl]-1H-indole], for which the maximum response (Emax) in experiment [1] was found to be 0%; in experiment [3] it was 10%. This compound showed a Ki in experiment [2] of 36.7 nM.

For `N#Cc1ccc2[nH]cc([C@H]3CC[C@@H](N4CCN(c5cccc6[nH]ccc56)CC4)CC3)c2c1` [Example 7a, 3-{4-[(1,4-cis)-4-(1H-Indol-4-yl)-piperazinyl-1-yl]cyclohexyl}-1H-indole-5-carbonitrile], the maximal response (Emax) in experiment [1] and in experiment [3] was 0% each time. At serotonin transporter, the Ki turned out to be 1.62 nM.

For the compound `c1cc(N2CCN([C@H]3CC[C@H](c4c[nH]c5ncccc54)CC3)CC2)c2cc[nH]c2c1` [Example 10b, 3-{(1,4-trans)-4-[4-(1H-Indole-4-yl)-piperazin-1-yl]-cyclohexyl}-1H-pyrrolo[2,3-b]pyridine], the values for the maximal effect (Emax) in experiment [1] and in experiment [3] were 79% and 14%, respectively. Moreover, affinity in experiment [2] was put at a Ki of 7.78 nM.

Turning to `COc1ccccc1C1CCN([C@H]2CC[C@H](c3c[nH]c4ccc(F)cc43)CC2)CC1` [Example 19b, 5-Fluoro-3-{(1,4-trans)-4-[4-(2-methoxy-phenyl)-piperidin-1-yl]-cyclohexyl}-1H-indole], the Emax was 92% in experiment [1] and 74% in experiment [3]. This compound also displayed an inhibition constant Ki in experiment [2] of 26.2 nM.

With `COc1ccc2[nH]cc([C@H]3CC[C@H](N4CCN(c5ccccc5OC)CC4)CC3)c2c1` [Example 20b, 5-Methoxy-3-{(1,4-trans)-4-[4-(2-methoxy-phenyl)-piperazin-1-yl]-cyclohexyl}-1H-indole], the maximal response (Emax) in experiment [1] was 75.5%; in experiment [3] it was 33%. Besides, the Ki in experiment [2] was determined as 14.9 nM.

In the case of `N#Cc1ccc2[nH]cc([C@H]3CC[C@@H](N4CCN(c5cccc6c5OCCO6)CC4)CC3)c2c1` [Example 26a, 3-{(1,4-cis)-4-[4-(2,3-Dihydro-benzo[1,4]dioxin-5-yl)-piperazin-1-yl]-cyclohexyl}-1H-indole-5-carbonitrile], the maximal effect (Emax) in experiment [1] turned out to be 0%; in experiment [3], 18%. In addition, the values for the Ki (at serotonin transporter; in experiment [2]) were 4.1 nM and 59.1 nM, respectively.
